ChEMBL document CHEMBL1201862, “PubChem BioAssay data set” (2004)
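Step 1: Grow cells in 96-well plates. Step 2: Expose to compound for 48 hours at 5 concentrations. Step 3: Interpolate endpoints linearly; if unreached, use highest concentration. The concentration for 50% growth inhibition is given as GI50.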 Active and inactive are the calls of the source. No stated cut-off is given here; in the data, active = GI50 up to about 1.1 µM and inactive = higher.

Assays:
Experiment in all cases: inhibition of tumour cell growth, NCI panel, 48 h
[1] = system: RXF 393
[2] = system: ACHN
[3] = system: MOLT-4
[4] = system: SR
[5] = system: SF-268
[6] = system: DU-145
[7] = system: SK-OV-3
[8] = system: RPMI-8226
[9] = system: OVCAR-3
[10] = system: SK-MEL-5
[11] = system: NCI-H23
[12] = system: Hs-578T
[13] = system: MDA-MB-231
[14] = system: HT-29
[15] = system: UACC-257
[16] = system: MCF7
[17] = system: SW-620
[18] = system: LOX IMVI
[19] = system: NCI-H226
[20] = system: HOP-62
[21] = system: T47D
[22] = system: HCT-15
[23] = system: SNB-75
[24] = system: CCRF-CEM
[25] = system: UACC-62
[26] = system: NCI-H522
[27] = system: K562
[28] = system: HL-60
[29] = system: EKVX
[30] = system: U-251
[31] = system: PC-3
[32] = system: BT-549
[33] = system: OVCAR-4
[34] = system: SNB-19
[35] = system: OVCAR-5
[36] = system: OVCAR-8
[37] = system: HOP-92
[38] = system: M14
[39] = system: KM12
[40] = system: A549
[41] = system: A498
[42] = system: SN12C
[43] = system: NCI-H460
[44] = system: COLO 205
[45] = system: HCT-116
[46] = system: CAKI-1
[47] = system: HCC 2998
[48] = system: 786-0
[49] = system: SF-295
[50] = system: SK-MEL-28
[51] = system: Malme-3M
[52] = system: MDA-MB-435
[53] = system: MDA-N
[54] = system: UO-31
[55] = system: IGROV-1
[56] = system: NCI/ADR-RES
[57] = system: SK-MEL-2
[58] = system: TK-10

Measured: GI50

O=C1O[C@H]2[C@@H]3OC(=O)c4cc(O)c(O)c(O)c4-c4c(cc(O)c(O)c4O)C(=O)OC[C@H]2O[C@@H](OC(=O)c2cc(O)c(O)c(O)c2)[C@@H]3OC(=O)c2cc(O)c(O)c3c2[C@@H]2C1=CC(=O)C(O)(O)C2(O)O3 (stereo not given in full)
21.9 µM: [22]
inactive: [1] 36.5 µM | [2] 31.5 µM | [3] 25.9 µM | [4] 29 µM | [5] 74.1 µM | [6] 47 µM | [7] 11 µM | [8] 38.3 µM | [9] 35.6 µM | [10] 25.5 µM | [11] 33.1 µM | [12] 40.4 µM | [13] 19.8 µM | [14] 16.5 µM | [15] 51.6 µM | [16] 25.2 µM | [17] 18.5 µM | [18] 13.3 µM | [19] 23.2 µM | [20] 38.8 µM | [21] 26.8 µM | [23] 24.6 µM | [24] 27 µM | [25] 30.1 µM | [26] 28.1 µM | [27] 29.6 µM | [28] 20.7 µM | [29] 16.1 µM | [30] 15.6 µM | [31] 39.7 µM | [32] 72.8 µM | [33] 15.2 µM | [34] 76.9 µM | [35] 16.4 µM | [36] 19.5 µM | [37] 27.7 µM | [38] 19.7 µM | [39] 22.1 µM | [40] 25.9 µM | [41] 82.8 µM | [42] 16.9 µM | [43] 33 µM | [44] 25.9 µM | [45] 16.9 µM | [46] 14.1 µM | [47] 21 µM | [48] 18.1 µM | [49] 31.6 µM | [50] > 100 µM | [51] 84.9 µM | [52] 16.7 µM | [53] 16 µM | [54] 21.7 µM | [55] 52.8 µM | [56] 39.3 µM | [57] 29.9 µM

CC1=NN(c2ccccc2)C2(C1)C(Cl)C(=O)N2c1nc2ccccc2s1 (stereo not given)
inactive: [1] 23.8 µM | [2] 46.9 µM | [3] 20.7 µM | [4] 22.9 µM | [5] 29.9 µM | [6] 36.2 µM | [7] 32.1 µM | [8] 18.1 µM | [9] 15.8 µM | [10] 20.8 µM | [11] 24.2 µM | [12] 50.5 µM | [13] 28.8 µM | [14] 34.9 µM | [15] 80.2 µM | [16] 43.9 µM | [17] 29.9 µM | [18] 13.5 µM | [19] 15.1 µM | [20] 25.2 µM | [21] 31.5 µM | [23] 80.5 µM | [24] 14.9 µM | [25] 34.4 µM | [26] 21.6 µM | [27] 33.6 µM | [28] 21.1 µM | [29] 30.6 µM | [30] 26 µM | [31] 37.1 µM | [32] 34.1 µM | [33] 85.1 µM | [34] 43 µM | [35] 41.7 µM | [36] 36.1 µM | [37] 73.6 µM | [38] 33.2 µM | [39] 49.5 µM | [40] 35.2 µM | [41] 53 µM | [42] 23.5 µM | [43] 31 µM | [44] 27.3 µM | [45] 21.5 µM | [46] 66.7 µM | [47] 60.4 µM | [48] 31.9 µM | [49] 28.8 µM | [50] 36.6 µM | [51] 42.2 µM | [52] 40.6 µM | [53] 35.6 µM | [58] > 100 µM | [54] 26.6 µM | [55] 16.6 µM | [56] 23.9 µM | [57] 23.8 µM
29.9 µM: [22]
